From patent US9062041B2 (Bayer Intellectual Property GmbH, priority 2011, dated 2015)

Legend:
Assay type in all cases: cell-based
[1] = biological target: EP2 subtype of the human PGE2 receptor (Homo sapiens, UniProt P43116); assay: cAMP antagonism test on the human EP2 receptor (HTRF cAMP detection); details: hEP2 receptor, read-out: Antagonism hEP2 IC50
Outline: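 Read-out is a competitive HTRF for cAMP: lysate cAMP displaces cAMP-d2 from Eu cryptate-labelled antibody, and antagonism raises the 665/620 nm ratio. Compound (0.8 nM–16.5 μM) added to EP2 cells 20 min at RT before 60 min PGE2 challenge (3× stock 1.5 nM) with IBMX, followed by 20 min lysis.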

[2] = biological target: EP4 subtype of the human PGE2 receptor (Homo sapiens, UniProt P35408); assay: cAMP antagonism test on the human EP4 receptor (HTRF cAMP detection); details: selectivity towards hEP4, IC50 measured by cAMP antagonism test
Outline: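 Competitive HTRF cAMP read-out (cAMP-d2 vs Eu-cryptate anti-cAMP antibody, 665/620 nm ratio) on lysed human EP4 cells. Compound (0.8 nM–16.5 μM) applied 20 min at RT before 60 min PGE2 challenge (3× solution 0.3 nM, IBMX present); 20 min lysis precedes reading.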

human PGD receptor = biological target: T1, human PGD receptor (Homo sapiens, UniProt Q13258); assay: cAMP antagonism test on the human prostaglandin D receptor (HTRF cAMP detection); details: selectivity towards hDP, IC50 measured by cAMP antagonism test
T1 sequence (Q13258 1-359): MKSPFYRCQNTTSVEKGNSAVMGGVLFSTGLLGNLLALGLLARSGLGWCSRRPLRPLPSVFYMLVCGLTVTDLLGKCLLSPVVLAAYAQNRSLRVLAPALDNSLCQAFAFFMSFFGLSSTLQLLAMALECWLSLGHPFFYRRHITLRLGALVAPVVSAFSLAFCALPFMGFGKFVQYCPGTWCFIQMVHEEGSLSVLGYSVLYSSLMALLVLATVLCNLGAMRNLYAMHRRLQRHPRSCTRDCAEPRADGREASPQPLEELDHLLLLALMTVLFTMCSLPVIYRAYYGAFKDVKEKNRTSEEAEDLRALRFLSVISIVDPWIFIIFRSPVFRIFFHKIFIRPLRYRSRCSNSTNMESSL
Outline: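 HTRF competition read-out (665/620 nm ratio ×10000), where higher FRET means less cAMP, i.e. antagonism. Compounds (0.8 nM–16.5 μM) were preincubated 20 min at RT with cells and cAMP-d2, PGD2 (3× solution, 6 nM) in IBMX-containing PBS added for 30 min at RT, then cells lysed 20 min.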

EP2 subtype of the human PGE2 receptor, sequence (P43116 whole entry): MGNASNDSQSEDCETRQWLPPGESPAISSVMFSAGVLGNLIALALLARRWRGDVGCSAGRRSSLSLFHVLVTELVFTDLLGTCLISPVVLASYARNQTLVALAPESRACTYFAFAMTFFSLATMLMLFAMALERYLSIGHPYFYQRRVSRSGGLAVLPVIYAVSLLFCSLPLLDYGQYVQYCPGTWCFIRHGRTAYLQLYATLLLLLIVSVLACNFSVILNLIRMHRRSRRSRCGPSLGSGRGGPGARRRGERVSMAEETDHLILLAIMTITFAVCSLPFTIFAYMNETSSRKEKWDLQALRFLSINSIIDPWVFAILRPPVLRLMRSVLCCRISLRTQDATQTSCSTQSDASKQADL
EP4 subtype of the human PGE2 receptor, sequence (P35408 whole entry): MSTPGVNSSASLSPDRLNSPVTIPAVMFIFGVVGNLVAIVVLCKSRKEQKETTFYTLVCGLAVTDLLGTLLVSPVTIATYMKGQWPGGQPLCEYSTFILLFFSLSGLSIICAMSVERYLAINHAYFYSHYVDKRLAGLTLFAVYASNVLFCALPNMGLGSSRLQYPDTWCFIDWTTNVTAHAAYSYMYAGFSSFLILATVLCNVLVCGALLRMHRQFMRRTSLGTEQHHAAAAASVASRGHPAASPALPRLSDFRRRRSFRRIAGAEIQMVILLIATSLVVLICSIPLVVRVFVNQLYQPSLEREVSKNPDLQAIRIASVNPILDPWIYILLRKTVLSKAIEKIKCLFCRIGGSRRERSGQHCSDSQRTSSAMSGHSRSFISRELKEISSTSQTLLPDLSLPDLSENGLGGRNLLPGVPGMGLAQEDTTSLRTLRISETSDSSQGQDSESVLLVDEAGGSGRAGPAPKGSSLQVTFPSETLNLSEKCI

## COCCNC(=O)c1ccc2nn(CC3CCN(C(=O)c4ccc(Oc5cccc(C(F)(F)F)c5)cc4)CC3)cc2c1C [Example 355, N-(2-methoxyethyl)-4-methyl-2-[(1-{4-[3-(trifluoromethyl)phenoxy]benzoyl}-piperidin-4-yl)methyl]-2H-indazol-5-carboxamide]
[1]
  IC50: 0.00539 µM
[2]
  Selectivity hEP2/hEP4: xxx (xxx > 100)
Human PGD receptor
  Selectivity hEP2/hDP: xxx (xxx > 100)

## Cc1c(C(=O)NCCOCC2CC2)ccc2nn(CC3CCN(C(=O)c4ccc(C5CC5)cc4)CC3)cc12 [Example 89, 2-{[1-(4-cyclopropyl-benzoyl)piperidin-4-yl]methyl}-N-[2-(cyclopropylmethoxy)ethyl]-4-methyl-2H-indazol-5-carboxamide]
[1]
  IC50: 0.0094 µM
[2]
  Selectivity hEP2/hEP4: xxx (xxx > 100)
Human PGD receptor
  Selectivity hEP2/hDP: xxx (xxx > 100)

## Cc1cc2nn(CC3CCN(C(=O)c4cccc(C(F)(F)F)c4)CC3)cc2cc1C(=O)NCCN1CCOCC1 [Example 82, 6-methyl-N-(2-morph-olinoethyl)-2-({1-[3-(trifluoromethyl)-benzoyl]piperidin-4-yl}methyl)-2H-indazol-5-carboxamide]
[1]
  IC50: 0.218 µM
[2]
  Selectivity hEP2/hEP4: xx (xx: 10-100)
Human PGD receptor
  Selectivity hEP2/hDP: xx (xx: 10-100)

## COCCNC(=O)c1ccc2nn(CC3CCN(C(=O)c4ccc(-c5cnc(C)nc5)cc4)CC3)cc2c1C [Example 379, N-(2-methoxyethyl)-4-methyl-2-({1-[4-(2-methylpyrimidin-5-yl)benzoyl]-piperidin-4-yl}methyl)-2H-indazol-5-carboxamide]
[1]
  IC50: 0.0626 µM
[2]
  Selectivity hEP2/hEP4: xxx (xxx > 100)
Human PGD receptor
  Selectivity hEP2/hDP: xxx (xxx > 100)

## COCCNC(=O)c1ccc2nn(CC3CCN(C(=O)c4ccc(OC(C)(C)C)cc4)CC3)cc2c1C [Example 2, 2-({1-[4-tert-(butoxy)benzoyl]piperidin-4-yl}methyl)-N-(2-methoxyethyl)-4-methyl-2H-indazol-5-carboxamide]
[1]
  IC50: 0.0217 µM
[2]
  Selectivity hEP2/hEP4: xxx (xxx > 100)
Human PGD receptor
  Selectivity hEP2/hDP: xxx (xxx > 100)

## Cc1c(C(=O)NCC(C)(C)C)ccc2nn(CC3CCN(C(=O)c4ccc(Oc5ccc(C(F)(F)F)cc5)cc4)CC3)cc12 [Example 405, 4-methyl-N-neopentyl-2-[(1-{4-[4-(trifluoromethyl)phenoxy]benzoyl}piperidin-4-yl)methyl]-2H-indazol-5-carboxamide]
[1]
  IC50: 2.14 µM
[2]
  Selectivity hEP2/hEP4: x (x: 1-10)
Human PGD receptor
  Selectivity hEP2/hDP: x (x: 1-10)

## Cc1c(C(=O)NCC(F)(F)F)ccc2nn(CC3CCN(C(=O)c4cn(C)c5ccccc45)CC3)cc12 [Example 289, 4-methyl-2-({1-[(1-methyl-1H-indol-3-yl)carbonyl]piperidin-4-yl}methyl)-N-(2,2,2-trifluoroethyl)-2H-indazol-5-carboxamide]
[1]
  IC50: 0.0516 µM
[2]
  Selectivity hEP2/hEP4: xxx (xxx > 100)
Human PGD receptor
  Selectivity hEP2/hDP: xxx (xxx > 100)

## COCCNC(=O)c1ccc2nn(CC3CCN(C(=O)c4ccc(S(C)(=O)=O)cc4F)CC3)cc2c1C [Example 6, 2-{[1-(2-fluoro-4-mesylbenzoyl)piperidin-4-yl]methyl}-N-(2-methoxyethyl)-4-methyl-2H-indazol-5-carboxamide]
[1]
  IC50: 0.313 µM
[2]
  Selectivity hEP2/hEP4: xx (xx: 10-100)
Human PGD receptor
  Selectivity hEP2/hDP: xx (xx: 10-100)

## Cc1c(C(=O)NCC2CCCCO2)ccc2nn(CC3CN(C(=O)c4ccc(Cl)cc4)C3)cc12 (single isomer, unassigned) [Example 146, (S or R)-2-{[1-(4-chlorobenzoyl)azetidin-3-yl]methyl}-4-methyl-N-(3,4,5,6-tetrahydro-2H-pyran-2-ylmethyl)-2H-indazol-5-carboxamide]
[1]
  IC50: 0.0526 µM
[2]
  Selectivity hEP2/hEP4: xxx (xxx > 100)
Human PGD receptor
  Selectivity hEP2/hDP: xxx (xxx > 100)

## COCCNC(=O)c1ccc2nn(CC3CCN(C(=O)c4ccc(-c5ccc(C)nc5)cc4)CC3)cc2c1C [Example 377, N-(2-methoxyethyl)-4-methyl-2-({1-[4-(6-methylpyridin-3-yl)benzoyl]piperidin-4-yl}methyl)-2H-indazol-5-carboxamide]
[1]
  IC50: 0.0273 µM
[2]
  Selectivity hEP2/hEP4: xxx (xxx > 100)
Human PGD receptor
  Selectivity hEP2/hDP: xxx (xxx > 100)

## COCCNC(=O)c1ccc2nn(CC3CCN(C(=O)c4ccc(-c5ccc(C(C)(C)C#N)cc5)cc4)CC3)cc2c1C [Example 372, 2-[(1-{[4′-(1-cyano-1-methylethyl)biphenyl-4-yl]carbonyl}piperidin-4-yl)-methyl]-N-(2-methoxyethyl)-4-methyl-2H-indazol-5-carboxamide]
[1]
  IC50: 0.00729 µM
[2]
  Selectivity hEP2/hEP4: xxx (xxx > 100)
Human PGD receptor
  Selectivity hEP2/hDP: xxx (xxx > 100)

## COCCNC(=O)c1ccc2nn(CC3CCN(C(=O)c4ccc(-c5ccc(Cl)cc5OC)cc4)CC3)cc2c1C [Example 381, 2-({1-[(4′-chloro-2′-methoxybiphenyl-4-yl)carbonyl]piperidin-4-yl}methyl)-N-(2-methoxyethyl)-4-methyl-2H-indazol-5-carboxamide]
[1]
  IC50: 0.00584 µM
[2]
  Selectivity hEP2/hEP4: xxx (xxx > 100)
Human PGD receptor
  Selectivity hEP2/hDP: xxx (xxx > 100)

## COCCNC(=O)c1ccc2nn(CC3CCN(C(=O)c4ccc(OC(C)C)cc4F)CC3)cc2c1C [Example 362, 2-{[1-(2-fluoro-4-isopropoxybenzoyl)piperidin-4-yl]methyl}-N-(2-methoxy-ethyl)-4-methyl-2H-indazol-5-carboxamide]
[1]
  IC50: 0.0151 µM
[2]
  Selectivity hEP2/hEP4: xxx (xxx > 100)
Human PGD receptor
  Selectivity hEP2/hDP: xxx (xxx > 100)

## Cc1c(C(=O)NCCOCC2CC2)ccc2nn(CC3CCN(C(=O)c4ccc(-c5ccc(F)cc5)cc4)CC3)cc12 [Example 88, N-[2-(cyclopropyl-methoxy)ethyl]-2-({1-[(4′-fluorobiphenyl-4-yl)carbonyl]piperidin-4-yl}methyl)-4-methyl-2H-indazol-5-carboxamide]
[1]
  IC50: 0.0162 µM
[2]
  Selectivity hEP2/hEP4: xxx (xxx > 100)
Human PGD receptor
  Selectivity hEP2/hDP: xxx (xxx > 100)

## COCCNC(=O)c1ccc2nn(CC3CCN(C(=O)c4nc5ccccc5s4)CC3)cc2c1C [Example 348, 2-{[1-(benzothiazol-2-ylcarbonyl)piperidin-4-yl]methyl}-N-(2-methoxyethyl)-4-methyl-2H-indazol-5-carboxamide]
[1]
  IC50: 0.00888 µM
[2]
  Selectivity hEP2/hEP4: xxx (xxx > 100)
Human PGD receptor
  Selectivity hEP2/hDP: xxx (xxx > 100)

## Cc1c(C(=O)NCCOCC2CC2)ccc2nn(CC3CCN(C(=O)c4ccc(Cl)cc4)CC3)cc12 [Example 84, 2-{[1-(4-chlorobenzoyl)piperidin-4-yl]methyl}-N-[2-(cyclopropylmethoxy)ethyl]-4-methyl-2H-indazol-5-carboxamide]
[1]
  IC50: 0.0192 µM
[2]
  Selectivity hEP2/hEP4: xxx (xxx > 100)
Human PGD receptor
  Selectivity hEP2/hDP: xxx (xxx > 100)

## COCCNC(=O)c1ccc2nn(CC3CCN(C(=O)c4ccc(OC)cc4)CC3)cc2c1C [Example 21, 2-{[1-(4-methoxy-benzoyl)piperidin-4-yl]methyl}-N-(2-methoxyethyl)-4-methyl-2H-indazol-5-carboxamide]
[1]
  IC50: 0.0358 µM
[2]
  Selectivity hEP2/hEP4: xxx (xxx > 100)
Human PGD receptor
  Selectivity hEP2/hDP: xxx (xxx > 100)

## Cc1c(C(=O)NCCSC(F)(F)F)ccc2nn(CC3CN(C(=O)c4ccc(OC(F)(F)F)cc4)C3)cc12 [Example 133, 4-methyl-2-({1-[4-(trifluoromethoxy)benzoyl]azetidin-3-yl}methyl)-N-{2-[(trifluoromethyl)sulphanyl]ethyl}-2H-indazol-5-carboxamide]
[1]
  IC50: 0.0419 µM
[2]
  Selectivity hEP2/hEP4: xxx (xxx > 100)
Human PGD receptor
  Selectivity hEP2/hDP: xxx (xxx > 100)

## COCCNC(=O)c1ccc2nn(CC3CCN(C(=O)c4ccc(Oc5ccc(Cl)cc5)cc4)CC3)cc2c1C [Example 14, 2-({1-[4-(4-chloro-phenoxy)benzoyl]-piperidin-4-yl}-methyl)-N-(2-methoxyethyl)-4-methyl-2H-indazol-5-carboxamide]
[1]
  IC50: 0.00367 µM
[2]
  Selectivity hEP2/hEP4: xxx (xxx > 100)
Human PGD receptor
  Selectivity hEP2/hDP: xxx (xxx > 100)
